In brackets after ≈: the same amount, converted by molar mass. Several values for one entry are separate records, joined by “and”; a condition that tells them apart may be missing. Identical values can stand only once. Like-named read-outs stand apart in the source and are kept apart here. Square brackets hold non-standard residues; d marks the D form. Peptide text beside a SMILES is read from it. Bip(4'-Cl) = N[C@@H](Cc1ccc(-c2ccc(Cl)cc2)cc1)C(=O)O; dBip(4'-Cl) = N[C@H](Cc1ccc(-c2ccc(Cl)cc2)cc1)C(=O)O

What all share (assay): microbe, parasite or virus in culture
The test system of assay [1] is Mupirocin-susceptible MRSA ATCC-BAA-1754 (ST45). It is filed as cell-based, Staphylococcus aureus. The method, then:
(§1) The MICs of test compounds were determined using the microdilution method from the Clinical and Laboratory Standards Institute (CLSI) guidelines (Clinical and Laboratory Standards Institute. Methods for dilution antimicrobial susceptibility tests for bacteria that grow aerobically; approved standard—ninth edition. Document M07-A9. Vol. 32 No. 2. Wayne, Pa.: CLSI; 2012). Briefly, bacteria were grown fresh from frozen stock in Mueller Hinton 2 (MH2) agar at 37° C. After an overnight incubation, 5 bacteria colonies were selected to grow in cation-adjusted MH2 broth in a shaking incubator (140 RPM) at 37° C. Cells were grown to an optical density (OD600) of 0.15-0.16 determined using a spectrophotometer (Molecular Devices Spectra Max Plus), which corresponds to ˜1×10^8 CFU/mL. Test compounds were constituted into 4 mM DMSO stock solutions and then subjected to 2-fold serial dilution in a 96-well plate with concentrations ranging from 100 to 0.195 μM in duplicates. […] of microbial culture containing ˜1×10^6 CFU/mL of microbes in the respective broths was introduced into each well containing 50 μL of compound solution. After an overnight incubation at 35° C., (220 RPM), OD600 measurements were conducted using the microplate spectrophotometer. The MIC was defined as the lowest antibiotic or compound concentration (μM) required to inhibit bacteria growth.
(§2) The 11th well was used as the growth control well (medium with bacterial inoculums, no antibacterial) while the 12th well was the sterility control well (medium only).

The test system of assay [2] is Mupirocin-susceptible MRSA ATCC-700699 (VISA). It is filed as cell-based, Staphylococcus aureus. As for the experimental part: as §1, §2
The subject of assay [3] is Mupirocin-resistant MRSA ATCC-BAA-1708. It is filed as cell-based, Staphylococcus aureus. The method, then: as §1, §2
Assay [4] concerns Mupirocin-susceptible MRSA ATCC-BAA-2762 (EMRSA15, ST22). It is filed as cell-based, Staphylococcus aureus. The method, then: as §1, §2
The test system of assay [5] is Mupirocin-susceptible MRSA ATCC-BAA-1707 (USA400). It is filed as cell-based, Staphylococcus aureus. The method, then:
as §1, §2

For assay [6], the system named is Mupirocin-susceptible MRSA ATCC-BAA-1756 (USA300). Type of assay: cell-based, Staphylococcus aureus. As for the experimental part: as §1, §2
For assay [7], the system named is Mupirocin-susceptible MRSA ATCC-BAA-1681 (USA100). Type of assay: cell-based, Staphylococcus aureus. As for the experimental part: as §1, §2
The subject of assay [8] is Mupirocin-resistant MRSA ATCC-BAA-1750 (USA200). It is filed as cell-based, Staphylococcus aureus. As for the experimental part: as §1, §2
Assay [9] relates to Mupirocin-resistant MRSA ATCC-BAA-1556. Type of assay: cell-based, Staphylococcus aureus. As for the experimental part: as §1, §2
The subject of assay [10] is Mupirocin-susceptible MRSA ATCC-33592 (ST239). It is filed as cell-based, Staphylococcus aureus. The method, then: as §1, §2
The test system of assay [11] is S. aureus (ATCC BAA-1556). To be noted: Staphylococcus aureus, ATCCBAA1556, 24 h, read-out: Mean MIC. As for the experimental part:
S. aureus (BAA-1556) was from ATCC. Mupirocin (Cat # M2955) was purchased from TCI chemicals (India) Pvt. […] Ltd, India, Cation adjusted Mueller Hinton broth (CAMHB) and Mueller Hinton Agar (MHA) (Cat # M1657) were from HiMedia Laboratories Pvt. Ltd, India.
The MIC assay was done based on CLSI guidelines in a microtitre plate format (1, 2). Preparation and dilution of Test Item (TI) stock solutions: A 1280 μg/ml stock of Compound 34 was prepared by dissolving 1.28 mg in 1.0 ml of sterile water to obtain the Master Stock (MS) solution. The MS solution was diluted 2-fold to obtain a series of Working Stock (WS) solutions (Table 7). The final concentration of solvent in the assay was 2.5% and the assay volume was […].
Preparing the inoculum: One day before initiation of experiment, an isolated colony of S. aureus (ATCC BAA-1556) was inoculated into sterile CAMHB and incubated at 37° C. to exponential phase. After incubation, the turbidity was adjusted to that of a 0.5 McFarland Standard (approximately equivalent to 1.0×10^8 CFU/ml) and diluted to ˜1.0×10^6 CFU/ml.
MIC Assay: The MIC assay was performed in a 96 well microtitre plate in a total assay volume of 100 μl (Table 7). Each well containing different concentrations of test compound (concentration range between 0.015625 and 16.0 μg/ml) was inoculated with 50 μl of bacterial suspension (prepared from the inoculum grown overnight and adjusted approximately to 5.0×10^5 CFU/ml) along with culture control (CC, culture in broth), broth control (BC, broth only), and vehicle control (VC, 2.5% solvent in broth plus culture). The plate was incubated at 37° C. for 24 hr and turbidity was measured spectrophotometrically (Absorbance microplate reader, BioTek® India, ELx800™) at 600 nm and visually. The experiment was done in duplicates. The inoculum was also plated for enumeration of bacteria. The MIC was defined as the lowest concentration of test compound that prevented bacterial growth (lack of turbidity by OD at 600 nm and visual inspection relative to no growth control).

The mark [12] stands for this setting: Mupirocin-resistant MRSA ATCC-BAA-1556, cation-adjusted MH2 broth, overnight 35° C., OD600, read-out: MIC.

Turning to `N=C(N)NCCCCNC(=O)[C@@H](Cc1ccc(-c2ccccc2)cc1)NC(=O)[C@@H](CCCNC(=N)N)NC(=O)[C@H](N)Cc1ccc(-c2ccccc2)cc1` [Compound 2], the MIC was 6.25 µM (≈ 4.58 µg/mL) in assay [1] (ATCC-BAA-1754, read-out: MIC); 6.25 µM (≈ 4.58 µg/mL) in [2] (Mupirocin-susceptible MRSA ATCC-700699 (VISA), read-out: MIC); 6.25 µM (≈ 4.58 µg/mL) in assay [3] (ATCC-BAA-1708, read-out: MIC); 6.25 µM (≈ 4.58 µg/mL) in [4] (ATCC-BAA-2762, read-out: MIC); 6.25 µM (≈ 4.58 µg/mL) in assay [5] (ATCC-BAA-1707, read-out: MIC); 6.25 µM (≈ 4.58 µg/mL) in assay [6] (ATCC-BAA-1756, read-out: MIC). Also, the MIC in [7] (ATCC-BAA-1681, read-out: MIC) is 6.25 µM (≈ 4.58 µg/mL); in [8] (ATCC-BAA-1750, read-out: MIC), 6.25 µM (≈ 4.58 µg/mL); in assay [9] (setting [12]) it was 12.5 µM (≈ 9.16 µg/mL); in assay [10] (ATCC-33592, read-out: MIC), 6.25 µM (≈ 4.58 µg/mL).

For the compound `N=C(N)NCCC[C@H](NC(=O)[C@H](Cc1ccc(-c2ccc(Cl)cc2)cc1)NC(=O)[C@H](CCCNC(=N)N)NC(=O)[C@@H](N)Cc1ccc(-c2ccc(Cl)cc2)cc1)C(N)=O` [Compound 33] (H-[Bip(4'-Cl)]R[Bip(4'-Cl)]R-NH2), the MIC amounted to 3.125 µM (≈ 2.64 µg/mL) in [1] (ATCC-BAA-1754, read-out: MIC); 3.125 µM (≈ 2.64 µg/mL) in assay [2] (ATCC-700699, read-out: MIC); 1.56 µM (≈ 1.32 µg/mL) in assay [3] (ATCC-BAA-1708, read-out: MIC); 3.125 µM (≈ 2.64 µg/mL) in [4] (ATCC-BAA-2762, read-out: MIC); 3.125 µM (≈ 2.64 µg/mL) in [5] (ATCC-BAA-1707, read-out: MIC); 3.125 µM (≈ 2.64 µg/mL) in assay [6] (ATCC-BAA-1756, read-out: MIC). In addition, the MIC in assay [7] (ATCC-BAA-1681, read-out: MIC) stood at 3.125 µM (≈ 2.64 µg/mL); in [8] (ATCC-BAA-1750, read-out: MIC), 1.56 µM (≈ 1.32 µg/mL); in assay [9] (setting [12]) it was 3.125 µM (≈ 2.64 µg/mL); in [10] (ATCC-33592, read-out: MIC), 3.125 µM (≈ 2.64 µg/mL). In addition, the “improvement of bioactivity (lower MIC values) as compared to Compound 2” value in assay [9] (against Mupirocin-resistant MRSA strains) is reported as “about 4 fold”.

Take `N=C(N)NCCC[C@@H](NC(=O)[C@H](N)Cc1ccc(-c2ccc(Cl)cc2)cc1)C(=O)N[C@H](Cc1ccc(-c2ccc(Cl)cc2)cc1)C(=O)N[C@H](CCCNC(=N)N)C(=O)N[C@H](Cc1ccc(-c2ccc(Cl)cc2)cc1)C(N)=O` [Compound 40] (H-[dBip(4'-Cl)][dR][dBip(4'-Cl)][dR][dBip(4'-Cl)]-NH2): the MIC in assay [9] (ATCC-BAA-1556, read-out: MIC) is above 100 µM.

For the compound `N=C(N)NCCCCNC(=O)[C@H](Cc1ccc(-c2ccc(Cl)cc2)cc1)NC(=O)[C@H](CCCNC(=N)N)NC(=O)[C@@H](N)Cc1ccc(-c2ccc(Cl)cc2)cc1` [Compound 41], in [9] (ATCC-BAA-1556, read-out: MIC), the MIC is 6.25 µM (≈ 5.01 µg/mL).

For `N=C(N)NCCC[C@H](NC(=O)[C@H](Cc1ccc(-c2ccc(Cl)cc2)cc1)NC(=O)[C@H](CCCNC(=N)N)NC(=O)[C@H](N)Cc1ccc(-c2ccc(Cl)cc2)cc1)C(N)=O` [Compound 42] (H-[dBip(4'-Cl)]R[Bip(4'-Cl)]R-NH2), in assay [9] (ATCC-BAA-1556, read-out: MIC), the MIC was 6.25 µM (≈ 5.28 µg/mL).

With `N=C(N)NCCC[C@H](NC(=O)[C@H](Cc1ccc(-c2ccc(Cl)cc2)cc1)NC(=O)[C@@H](CCCNC(=N)N)NC(=O)[C@@H](N)Cc1ccc(-c2ccc(Cl)cc2)cc1)C(N)=O` [Compound 43] (H-[Bip(4'-Cl)][dR][Bip(4'-Cl)]R-NH2), the MIC in [9] (ATCC-BAA-1556, read-out: MIC) is 6.25 µM (≈ 5.28 µg/mL).

`N=C(N)NCCC[C@H](NC(=O)[C@@H](Cc1ccc(-c2ccc(Cl)cc2)cc1)NC(=O)[C@H](CCCNC(=N)N)NC(=O)[C@@H](N)Cc1ccc(-c2ccc(Cl)cc2)cc1)C(N)=O` [Compound 44] (H-[Bip(4'-Cl)]R[dBip(4'-Cl)]R-NH2): the MIC in [9] (ATCC-BAA-1556, read-out: MIC) was 6.25 µM (≈ 5.28 µg/mL).

As to `N=C(N)NCCC[C@H](NC(=O)[C@@H](N)Cc1ccc(-c2ccc(Cl)cc2)cc1)C(=O)N[C@@H](Cc1ccc(-c2ccc(Cl)cc2)cc1)C(=O)N[C@H](CCCNC(=N)N)C(N)=O` [Compound 45] (H-[Bip(4'-Cl)]R[Bip(4'-Cl)][dR]-NH2), in assay [9] (ATCC-BAA-1556, read-out: MIC), the MIC is reported as 6.25 µM (≈ 5.28 µg/mL).

In the case of `C/C(=C\C(=O)OCCCCCCCCC(=O)O)C[C@@H]1OC[C@H](C[C@@H]2O[C@H]2[C@@H](C)[C@H](C)O)[C@@H](O)[C@H]1O` [Mupirocin], the MIC is at most 0.2 µM in assay [1] (Staphylococcus aureus, Mupirocin-susceptible MRSA ATCC-BAA-1754 (ST45), read-out: MIC); at most 0.2 µM in assay [2] (Staphylococcus aureus, Mupirocin-susceptible MRSA ATCC-700699 (VISA), read-out: MIC); above 100 µM in assay [3] (Staphylococcus aureus, Mupirocin-resistant MRSA ATCC-BAA-1708, read-out: MIC); at most 0.2 µM in assay [4] (Staphylococcus aureus, Mupirocin-susceptible MRSA ATCC-BAA-2762 (EMRSA15, ST22), read-out: MIC); at most 0.2 µM in assay [5] (Staphylococcus aureus, Mupirocin-susceptible MRSA ATCC-BAA-1707 (USA400), read-out: MIC); at most 0.2 µM in assay [6] (Staphylococcus aureus, Mupirocin-susceptible MRSA ATCC-BAA-1756 (USA300), read-out: MIC). For the same compound, the MIC in assay [7] (Staphylococcus aureus, Mupirocin-susceptible MRSA ATCC-BAA-1681 (USA100), read-out: MIC) is at most 0.2 µM; in assay [8] (Staphylococcus aureus, Mupirocin-resistant MRSA ATCC-BAA-1750 (USA200), read-out: MIC), 25 µM (≈ 12.5 µg/mL); in assay [9] (Staphylococcus aureus, Mupirocin-resistant MRSA ATCC-BAA-1556, cation-adjusted MH2 broth, overnight 35° C., OD600, read-out: MIC), above 100 µM; in [10] (Staphylococcus aureus, Mupirocin-susceptible MRSA ATCC-33592 (ST239), read-out: MIC), at most 0.2 µM; in assay [11] it was > 16 µg/mL and > 32 µM.

Take `C=C[C@]1(C)C[C@@H](OC(=O)CS[C@@H]2C[C@H]3CC[C@@H](C2)N3C)[C@]2(C)[C@H](C)CC[C@]3(CCC(=O)[C@H]32)[C@@H](C)[C@@H]1O` [Retapamulin]: the MIC in assay [1] (Staphylococcus aureus), in assay [2] (Staphylococcus aureus), in assay [3] (Staphylococcus aureus), in assay [4] (Staphylococcus aureus), in [5] (Staphylococcus aureus) and in [6] (Staphylococcus aureus) was at most 0.2 µM in each case. In addition, the MIC in assay [7] (Staphylococcus aureus), in assay [8] (Staphylococcus aureus), in assay [9] (Staphylococcus aureus) and in assay [10] (Staphylococcus aureus) was at most 0.2 µM each time.

For the origin of these results see patent publication US20200157144A1, “ANTIMICROBIAL PEPTIDOMIMETICS” (priority 2017, published 2020).
